Laboratory results reported in EPA's ToxValDB 9.5.
≈ marks a conversion by molar mass, not a printed value. Where “and” joins values, the source holds several entries; their conditions need not be identical. Equal entries are not always repeated.

Columns and labels:
[1] = system: Rattus norvegicus; settings: oral
[2] = system: Mus musculus; settings: for LD50: acute
[3] = system: Rattus norvegicus
[4] = system: Mus musculus; settings: oral, drinking water
[5] = system: Rattus norvegicus; settings: oral; remark: listed apart in the source
[6] = system: Rattus norvegicus; settings: subchronic, duration: 13 weeks, oral, gavage, M/F, Fischer 344
[7] = subchronic, duration: 90 days, diet, M/F, reduced body weight
[8] = chronic, duration: 2 years, diet, M/F, reduced body weight, increased bun
[9] = chronic, duration: 2 years, diet, M/F, hematological effects (females)
[10] = reproduction developmental, M/F, Increased incidence of hepatocellular changes including fatty change and vacuolation (M) increased susceptibility to stress factors (F)
[11] = repeat dose other, inhalation, Fischer 344
[12] = chronic, duration: 91 days, oral, gavage
[13] = developmental, M/F, reduced pup survival
[14] = chronic, duration: 2 years, diet, M/F, reduced body weight
[15] = developmental, M/F, reduced pup weight
[16] = chronic, duration: 6 months, M, Kunming, novel object test (discrimination index) + open field (outer zone entry events)
[17] = chronic, duration: 6 months, M, Kunming, open field (center square entry events) + open field (middle zone line cross events)
[18] = chronic, duration: 6 months, drinking water, M/F, Sprague-Dawley, Morris water maze (escape time, acquisition, day 1)
[19] = developmental, drinking water, M/F, Wistar, generation: F1, F1: activity time (developmental phase III) + F1: open field (squares traveled, 9 min)
[20] = developmental, diet, M/F, increased body weight and liver weight, reduced ossification and slightly dilated ureters in fetuses, reduced offspring weight gain, total …
[21] = subchronic, M/F, clinical sign (e.g., hunched postures) and reduced body weight
[22] = subchronic, M/F, forestomach lesions, kidney toxicity
[23] = subchronic, duration: 90 days, diet, M/F, increased male spleen weight and che depression (females)
[24] = chronic, M/F, kidney damage and reduced lifespan
[25] = chronic, duration: 2 years, diet, M/F, reduced body weight gain (males) increased food and water consumption (males) and females
[26] = developmental, M/F, reduced body weight in parents and pups during lactation

NS(=O)(=O)[O-].[NH4+] [Ammonium sulfamate]
LEL [1, 7]: 500 mg/kg-day
NOEL [1, 7]: 250 mg/kg-day and 214 mg/kg-day

CCN(CC)C(=O)SCc1ccc(Cl)cc1 [Thiobencarb]
LEL [1, 8]: 5 mg/kg-day
NOEL [1, 8]: 1 mg/kg-day

NNS(=O)(=O)c1ccc(Oc2ccc(S(=O)(=O)NN)cc2)cc1 [4,4'-Oxybis(benzenesulfohydrazide)]
LD50 ([2]; injection, Intraperitoneal): > 5000 mg/kg
LD50 ([3]; acute, oral): 2300 mg/kg
LD50 ([3]; acute, oral, albino): > 5200 mg/kg
LOAEL ([3]; chronic, duration: 4 months, oral, gavage): 36 mg/kg-day

CCCCC(CC)COC(=O)CCCCCCCCC(=O)OCC(CC)CCCC (stereo unspecified) [Bis(2-ethylhexyl) decanedioate]
LD50 ([2]; oral, gavage): 9500 mg/kg
LD50 ([3]; acute, oral, gavage): 17000 mg/kg

CCNc1nc(NC(C)(C)C)nc(SC)n1 [Terbutryn]
LEL [1, 9]: 15 mg/kg-day
NOEL [1, 9]: 0.1 mg/kg-day

CC(C)C(O)(c1ccc(OC(F)(F)F)cc1)c1cncnc1 (stereo unspecified) [Flurprimidol]
LEL [1, 10]: 7.3 mg/kg-day
NOEL [1, 10]: 1.8 mg/kg-day

CCCCOC(=O)COC(=O)c1ccccc1C(=O)OCCCC
NOEL ([1]; chronic, no effects): 1000 mg/kg-day

Clc1ccc(Cl)c(C(Cl)(Cl)Cl)n1 [3,6-Dichloro-2-(trichloromethyl)pyridine]
NOAEL ([2]; repeat dose other, inhalation, B6C3F1): 3.47 mg/m3
LD50 ([3]; acute, oral, gavage): ≥ 1000 mg/kg and ≤ 2000 mg/kg
LOAEL [3, 11]: 14.7 mg/m3
NOAEL [3, 11]: 3.47 mg/m3

[O]=[V](=[O])[O][V](=[O])=[O] [Vanadium oxide (V2O5)]
NOAEL ([1]; chronic, reduced hair cystine): 0.89 mg/kg-day

CCCCCCCCCCCCCCCCCC(=O)[O-].CCCCCCCCCCCCCCCCCC(=O)[O-].[Ba+2] [Octadecanoic acid, barium salt]
LD50 ([2]; oral): 1830 mg/kg

Cc1cc(N=Nc2c(O)ccc3ccccc23)c(S(=O)(=O)[O-])cc1Cl.Cc1cc(N=Nc2c(O)ccc3ccccc23)c(S(=O)(=O)[O-])cc1Cl.[Ba+2] [C.I. Pigment Red 53]
NOAEL [2, 12]: 90 mg/kg-day
NOAEL [3, 12]: 25 mg/kg-day
NOAEL ([3]; reproduction developmental, duration: 30 months, oral, gavage, F): < 10000 ppm
NOAEL ([3]; reproduction developmental, duration: 30 months, oral, gavage, generation: F0): > 10000 ppm
NOAEL ([3]; reproduction developmental, duration: 30 months, oral, gavage, generation: F1): > 10000 ppm

COP(=O)(OC)O/C(C)=C/C(=O)N(C)C [Dicrotophos]
LEL [1, 13]: 0.25 mg/kg-day
NOEL [1, 13]: 0.1 mg/kg-day

Cn1c(-c2ccccc2)cc(-c2ccccc2)[n+]1C [Difenzoquat]
LEL [1, 14]: 125 mg/kg-day
NOEL [1, 14]: 25 mg/kg-day

CCN(CC)c1ccccc1 [N,N-Diethylaniline]
LD50 ([2]; injection, Intraperitoneal): 870 mg/kg
LD50 ([3]; acute, dermal): 5000 mg/kg
LC50 ([3]; acute, inhalation): 1.92 µg/mL (≈ 12.9 µM)
LD50 ([3]; acute, oral): 720 mg/kg
LD50 ([3]; acute, oral, gavage, Wistar): 606 mg/kg
LOAEL ([3]; short-term, duration: 28 days, oral, gavage, Wistar): 10 mg/kg-day

C=C(C)[C@H]1Cc2c(ccc3c2O[C@@H]2COc4cc(OC)c(OC)cc4[C@@H]2C3=O)O1 [Rotenone]
LEL [1, 15]: 1.88 mg/kg-day
NOEL [1, 15]: 0.38 mg/kg-day

C1CSCCS1 [1,4-Dithiane]
LOAEL ([1]; subchronic, duration: 90 days, gavage, M/F, nasal olfactory lesions): 105 mg/kg-day

[F-] [Fluoride]
LOEL ([4]; chronic, duration: 6 months, M/F, Kunming, active avoidance (shuttle box, 1st trial number where 3 consecutive conditioned avoidance responses occurred) + active avoidance (shuttle …): 2.63 mg/kg-day
NOEL ([4]; chronic, duration: 6 months, M/F, Kunming, active avoidance (shuttle box, response latency to conditioned avoidance response averaged over 150 trials)): 26.3 mg/kg-day
LOEL [4, 16]: 11.5 mg/kg-day
NOEL [4, 16]: 5.63 mg/kg-day
NOEL ([4]; chronic, duration: 6 months, M, Kunming, novel object test (time exploring familiar object, long-term memory phase) + novel object test (time exploring familiar object, short-term …): 11.5 mg/kg-day
LOEL [4, 17]: 5.63 mg/kg-day
NOEL [4, 17]: 2.82 mg/kg-day
LOEL ([4]; chronic, duration: 6 months, M, Kunming, open field (middle zone entry events) + open field (outer zone line cross events) + open field (total distance moved)): 2.82 mg/kg-day
LOEL ([4]; subchronic, duration: 90 days, M, Swiss, open field (defecation) + open field (grooming events) + open field (rearing events) + open field (squares crossed)): 9.58 mg/kg-day
NOEL ([4]; subchronic, duration: 90 days, M, Swiss, tail suspension test (immobility time, total 6 min)): 9.58 mg/kg-day
NOEL ([5]; chronic, duration: 4 months, diet, M, Hooded, T-maze, multiple (number of errors, acquisition, trial 1) + T-maze, multiple (number of errors, retention, trial 9) + T-maze, multiple (time…): 6.13 mg/kg-day
LOEL [5, 18]: 5.96 mg/L urine
NOEL [5, 18]: 2.59 mg/L urine
NOEL ([5]; chronic, duration: 6 months, drinking water, M/F, Sprague-Dawley, Morris water maze (escape time, acquisition, day 5)): 5.96 mg/L urine
NOEL (mg/kg ash femur) ([5]; chronic, duration: 8 months, drinking water, F, Sprague-Dawley, acquisition of the bar press response (days to reach learning criteria) + acquisition of the bar press response (maximum response)): 14800
NOEL ([5]; chronic, duration: 16 weeks, drinking water, F, Sprague-Dawley, activity box (attention cluster, total time) + activity box (groom cluster, initiations) + activity box (groom cluster, total time) + …): 19 mg/kg-day
LOEL ([5]; chronic, duration: 16 weeks, drinking water, F, Sprague-Dawley, activity box (groom/attention cluster initiations) + activity box (groom/attention cluster total time) + activity box (groom/explore cluster…): 19 mg/kg-day
LOEL ([5]; chronic, duration: 16 weeks, drinking water, M, Sprague-Dawley, activity box (attention cluster, total time) + activity box (groom cluster, initiations) + activity box (groom cluster, total time) + …): 19 mg/kg-day
NOEL ([5]; chronic, duration: 16 weeks, drinking water, M, Sprague-Dawley, activity box (groom/attention cluster, total time) + activity box (head turn, initiations) + activity box (head turn, total time)): 19 mg/kg-day
NOEL ([5]; chronic, duration: 104 days, drinking water, M, Sprague-Dawley, Von Frey hair test (withdrawal threshold, day 0)): 20.8 mg/kg-day
LOEL ([5]; chronic, duration: 104 days, drinking water, M, Sprague-Dawley, tail immersion (withdrawal latency to heat, day 112) + Von Frey hair test (withdrawal threshold, day 104)): 10.4 mg/kg-day
NOEL ([5]; chronic, duration: 195 days, drinking water, M, Lou/C, tail immersion (withdrawal latency to heat, 195 days) + Von Frey hair test (withdrawal threshold, 195 days) + Von Frey hair test (withdrawal…): 20.8 mg/kg-day
LOEL ([5]; developmental, drinking water, F, Wistar, generation: F1, F1: pain response (latency time to respond to hot plate)): 5.29 mg/kg-day
LOEL ([5]; developmental, drinking water, M/F, Sprague-Dawley, generation: F1, F1: Morris water maze (escape time, acquisition, average over days 1-4) + F1: Morris water maze (platform crossing, probe test, day 5) + F1…): 3.27 mg/kg-day
NOEL ([5]; developmental, drinking water, M/F, Wistar, generation: F1, F1: Morris water maze (number of errors, acquisition) + F1: Morris water maze (time to find platform, probe test)): 1.06 mg/kg-day
LOEL ([5]; developmental, drinking water, M/F, Wistar, generation: F1, F1: Morris water maze (number of errors, acquisition) + F1: Morris water maze (time to find platform, probe test) + F1: open field (face …): 5.29 mg/kg-day
LOEL ([5]; developmental, drinking water, M/F, Wistar, generation: F1, F1: T-maze (number of errors, retention phase) + F1: T-maze (number of sessions to reach learning criterion)): 16 mg/kg-day
NOEL ([5]; developmental, drinking water, M/F, Wistar, generation: F1, F1: activity time (developmental phase I) + F1: activity time (developmental phase II) + F1: activity time (developmental phase III) + F1: …): 5.29 mg/kg-day
LOEL [5, 19]: 1.06 mg/kg-day
NOEL [5, 19]: 0.21 mg/kg-day
LOEL ([5]; developmental, drinking water, M/F, Wistar, generation: F1, F1: open field (face scrubbing events, 9 min)): 0.21 mg/kg-day
LOEL ([5]; developmental, drinking water, M/F, Wistar, generation: F2, F2: T-maze (number of errors, retention phase) + F2: T-maze (number of sessions to reach learning criterion)): 16 mg/kg-day
LOEL ([5]; developmental, drinking water, M/F, Wistar, generation: F3, F3: T-maze (number of errors, retention phase) + F3: T-maze (number of sessions to reach learning criterion)): 16 mg/kg-day
LOEL ([5]; developmental, drinking water, M, Wistar, generation: F1, F1: pain response (latency time to respond to hot plate)): 5.29 mg/kg-day
NOEL ([5]; subchronic, duration: 6 weeks, drinking water, F, Sprague-Dawley, activity box (attention cluster, total time) + activity box (groom/attention cluster, total time) + activity box (groom/explore cluster, …): 21.4 mg/kg-day
LOEL ([5]; subchronic, duration: 6 weeks, drinking water, F, Sprague-Dawley, activity box (groom cluster, initiations) + activity box (groom cluster, total time) + activity box (groom, initiations) + activity box (…): 21.4 mg/kg-day
LOEL ([5]; subchronic, drinking water, M/F, Sprague-Dawley, generation: P0, P0: Morris water maze (escape time, acquisition, average over days 1-4) + P0: Morris water maze (platform crossing, probe test, day 5) + P0…): 3.27 mg/kg-day

CCCCC(CC)COC(=O)CCCCC(=O)OCC(CC)CCCC (stereo unspecified) [Bis(2-ethylhexyl)hexanedioate]
LOAEL [1, 20]: 1080 mg/kg-day
NOAEL [1, 20]: 170 mg/kg-day

COC(=O)NS(=O)(=O)c1ccc(N)cc1 [Asulam]
LEL ([1]; reproduction developmental, F, reduced ovarian weight, lower liver/body weight): 50 mg/kg-day

[N-]=[N+]=[N-].[Na+] [Sodium azide]
NOEL ([6]; Deaths + Clinical Observation: Hunched posture Ruffled fur Lethargy Decreased appetite Impaired breathing + Body Weight Changes: decrease + …): < 1.25 mg/kg-day
LOAEL [1, 21]: 10 mg/kg-day
NOAEL [1, 21]: 5 mg/kg-day

O=Cc1ccccc1 [Benzaldehyde]
NOEL ([6]; Deaths + Body Weight Changes: decrease + Histopathology: Brain/cerebellum -Degeneration Brain/cerebellum -Necrosis Brain/cerebellum -…): 200 mg/kg-day
LOAEL [1, 22]: 400 mg/kg-day
NOEL [1, 22]: 143 mg/kg-day and 200 mg/kg-day

ClCC(Cl)(Cl)Cl [1,1,1,2-Tetrachloroethane]
LOAEL ([1]; chronic, gavage, M/F, mineralization of the kidneys (males), hepatic clear cell change (females)): 125 mg/kg-day

CC(C)OC(=O)Nc1ccccc1 [Propham]
LEL [1, 23]: 100 mg/kg-day
NOEL [1, 23]: 50 mg/kg-day

CCOC(=O)COC(=O)c1ccccc1C(=O)OCC [Ethyl phthalyl ethyl glycolate]
LOAEL [1, 24]: 2500 mg/kg-day
NOEL [1, 24]: 250 mg/kg-day

CC1(C)[C@H](C(=O)O[C@H](C#N)c2cccc(Oc3ccccc3)c2)[C@@H]1C(Br)C(Br)(Br)Br (stereo partly specified) [Tralomethrin]
LEL [1, 25]: 3 mg/kg-day
NOEL [1, 25]: 0.75 mg/kg-day
LEL [1, 26]: 3 mg/kg-day
NOEL [1, 26]: 0.75 mg/kg-day

CCCCN(CCCC)SN(C)C(=O)Oc1cccc2c1OC(C)(C)C2 [Carbosulfan]
LEL [1, 14]: 25 mg/kg-day
NOEL [1, 14]: 1 mg/kg-day
